In patent US20190224147A1, “CETP MODULATOR FOR USE IN THE TREATEMENT OF EYE DISEASE” (Hoffmann-La Roche Inc., priority 2013, published 2019):
Marks after values point to notes of the source that are not given here.

Key:
[1] = Golden Syrian hamsters study b: lutein and zeaxanthin levels in plasma and liver; type: in vivo; conditions: hamsters fed 0.1% FLORAGLO, 14 days, dalcetrapib 0.320% (~300 mg/kg) or anacetrapib 0.024% (~25 mg/kg) in diet
Procedure: (§1) Hamsters (7 weeks-old) were fed a standard rodent chow diet containing 4.5% fat and 0.05% cholesterol and coconut oil (70 g/kg dry food) for 14 days. After 2 weeks of high-fat diet feeding, hamsters were allocated to 3 experimental treatment groups of 10 animals each based on plasma lipid levels, and provided the same diet as before supplemented with 0.1% (w/w) FLORAGLO (same composition as for Study 2) and either no treatment (group 1), dalcetrapib at 0.320% (w:w, ˜300 mg/kg, group 2), or anacetrapib at 0.024% (w:w, ˜25 mg/kg, group 3). After 14 days of treatment, plasma and livers were collected for lutein and zeaxanthin analysis as described in study a.

[2] = Golden Syrian hamsters study b: additional variables measured (cholesterol fractions, triglycerides); type: in vivo; conditions: 14 days, dalcetrapib ~300 mg/kg or anacetrapib ~25 mg/kg in diet
Procedure: as §1, with “3).” for “3). After 14 days of treatment, plasma and livers were collected for lutein and zeaxanthin analysis as described in study a.”

ICAM-1 = conditions: pre-treatment of human aortic endothelial cells; Martin K R et al, Atherosclerosis 2000; cited from earlier work
VCAM-1 expression = conditions: pre-incubation of human aortic endothelial cells; Martin K R et al, Atherosclerosis 2000; cited from earlier work
E-selectin expression = conditions: pre-incubation of human aortic endothelial cells; Martin K R et al, Atherosclerosis 2000; cited from earlier work
[3] = Golden Syrian hamsters study a: lutein and zeaxanthin levels in plasma, liver and eyecups (HPLC-MS); type: in vivo; conditions: hamsters fed 0.1% FLORAGLO, dalcetrapib 0.375% food admixture (~400 mg/kg), 14 days
Procedure: Hamsters (7 weeks-old) were fed a standard rodent chow diet containing 4.5% fat and 0.05% cholesterol and coconut oil (70 g/kg dry food) for 14 days. After two weeks of feeding, hamsters were allocated to 2 experimental groups of 10 animals and given the same diet as before supplemented with 0.1% (w:w) FLORAGLO (lutein 5.2%, zeaxanthin 0.5%, DSM Nutritional Products): group 1 received no treatment, group 2 was given dalcetrapib as a 0.375% food admixture (˜400 mg/kg).
After 14 days of treatment and 4 hours of fasting, plasma, liver and eyes were collected and kept frozen until analysis. Lutein and zeaxanthin levels in plasma, liver and the pooled eyecups from 2 hamsters were determined by HPLC-MS using cryptoxanthin as internal standard. Plasma samples were directly extracted with hexane/ethyl acetate in dark environment in the presence of BHT. Liver samples and pooled eye cups (n=4) were first homogenized in the presence of BHT using an appropriate solvent in a Precellys tissue homogenizer followed by saponification prior extraction with hexane/ethyl acetate. The organic phase was washed with water. All organic phases were dried and reconstituted in methanol containing 0.1%. HPLC-MS was accomplished on a Waters TQ-S in APCI mode coupled to an Acquity I-class UPLC (Waters AG, Baden-Dättwil) on an ACCLAIM C30 RP column (Thermo Fisher Scientific, Reinach).

## COc1cc(F)c(C(C)C)cc1-c1ccc(C(F)(F)F)cc1CN1C(=O)O[C@H](c2cc(C(F)(F)F)cc(C(F)(F)F)c2)[C@@H]1C [anacetrapib]
[1]
  Change in liver lutein, in % vs control: −32%
  Change in liver zeaxanthin, in % vs control: −31%
  Change in plasma lutein, in % vs control: ns
  Change in plasma zeaxanthin, in % vs control: ns
[2]
  HDL-C, in % vs control: +54*** %
  LDL-C, in % vs control: −99*** %
  Total cholesterol, in % vs control: +28** %
  Triglycerides, in % vs control: ns
  VLDL-C, in % vs control: ns

## CC1=C(/C=C/C(C)=C/C=C/C(C)=C/C=C/C=C(C)/C=C/C=C(C)/C=C/C2=C(C)CCCC2(C)C)C(C)(C)CCC1 [beta-carotene]
ICAM-1
  reduced the expression of ICAM-1: 11%
VCAM-1 expression
  reduced VCAM-1 expression: 29%
E-selectin expression
  reduced E-selectin expression: 38%

## CCC(CC)CC1(C(=O)Nc2ccccc2SC(=O)C(C)C)CCCCC1 [dalcetrapib, S-[2-([[1-(2-ethylbutyl)-cyclohexyl]-carbonyl]amino)phenyl]2-methylpropanethioate]
[3]; liver
  Change in liver lutein, in % vs control: +107%
  Change in liver zeaxanthin, in % vs control: +222.9%
[3]; plasma
  Change in plasma lutein, in % vs control: +55.7%
  Change in plasma zeaxanthin, in % vs control: +164%
[3]; pooled eyecups
  Change in eyecups lutein, in % vs control: +164.6%
  Change in eyecups zeaxanthin, in % vs control: +114%
[1]
  Change in liver lutein, in % vs control: +90%
  Change in liver zeaxanthin, in % vs control: +109%
  Change in plasma lutein, in % vs control: +95%
  Change in plasma zeaxanthin, in % vs control: +101%
[2]
  Triglycerides, in % vs control: −37** %
  VLDL-C, in % vs control: −27* %

## CC1=C[C@H](O)CC(C)(C)[C@H]1/C=C/C(C)=C/C=C/C(C)=C/C=C/C=C(C)/C=C/C=C(C)/C=C/C1=C(C)C[C@@H](O)CC1(C)C [lutein, (3R,3′R,6′R)-β,ε-Carotene-3,3′-diol]
ICAM-1
  reduced the expression of ICAM-1: 14%
VCAM-1 expression
  reduced VCAM-1 expression: 28%
E-selectin expression
  reduced E-selectin expression: 34%

## CC(C)=CCC/C(C)=C/C=C/C(C)=C/C=C/C(C)=C/C=C/C=C(C)/C=C/C=C(C)/C=C/C=C(\C)CCC=C(C)C [lycopene]
ICAM-1
  reduced the expression of ICAM-1: 18%
VCAM-1 expression
  reduced VCAM-1 expression: 13%
